In US20180319753A1, “MICROBIOCIDAL OXADIAZOLE DERIVATIVES” (SYNGENTA PARTICIPATIONS AG, priority 2015, published 2018) one finds pest or weed control, melting point and inhibition data, which are given here for 18 molecules.

Bounds are passed on as bounds.

One data set relates to Phakopsora pachyrhizi. The data set can be described thus: Phakopsora pachyrhizi / soybean / leaf disc preventative (Asian soybean rust). The format is in vivo. The settings on record: foliar, 200 ppm in the applied formulation, soybean leaf disks, inoculated one day after application, assessed 12 to 14 days after application, read-out: disease control compared to untreated control leaf disks. The method, boiled down:
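Read-out is percent disease control relative to untreated check discs, assessed once untreated discs show adequate disease, 12 to 14 days after application. Compounds, tested at 200 ppm in the applied formulation, are sprayed onto soybean leaf discs one day before inoculation with a spore suspension.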

Data set [1] relates to Glomerella lagenarium (Colletotrichum lagenarium). The data set can be described thus: Glomerella lagenarium (Colletotrichum lagenarium) liquid culture / cucumber / preventative (anthracnose). The format is cell-based. The following applies: Colletotrichum orbiculare; 20 ppm in the applied formulation; liquid culture in PDB, 24° C.; 3 to 4 days after application; read-out: disease control compared to untreated control (inhibition of growth measured photometrically). The method, boiled down:
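Cryostored conidia mixed into potato dextrose broth and added to DMSO compound solution in microtiter plates. Incubated at 24 °C. Growth inhibition read photometrically 3–4 days after application as percent activity versus untreated check.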

Data set [2] deals with Puccinia recondita f. Sp. Tritici. The data set can be described thus: Puccinia recondita f. sp. tritici / wheat / leaf disc curative (brown rust). Format: in vivo. The following applies: foliar, 200 ppm in the applied formulation, wheat leaf segments cv. Kanzler, applied 1 day after inoculation, assessed 6 to 8 days after application, read-out: disease control compared to untreated control leaf disks. As for the experimental part: (§1) Leaf disks or leaf segments of various plant species are cut from plants grown in a greenhouse. The cut leaf disks or segments are placed in multiwell plates (24-well format) onto water agar. The leaf disks are sprayed with a test solution before (preventative) or after (curative) inoculation. Compounds to be tested are prepared as DMSO solutions (max. 10 mg/ml) which are diluted to the appropriate concentration with 0.025% Tween20 just before spraying. The inoculated leaf disks or segments are incubated under defined conditions (temperature, relative humidity, light, etc.) according to the respective test system. A single evaluation of disease level is carried out 3 to 14 days after inoculation, depending on the pathosystem. Percent disease control relative to the untreated check leaf disks or segments is then calculated.
Wheat leaf segments cv. Kanzler are placed on agar in multiwell plates (24-well format). The leaf segments are then inoculated with a spore suspension of the fungus. Plates were stored in darkness at 19° C. and 75% relative humidity. The formulated test compound diluted in water was applied 1 day after inoculation. The leaf segments were incubated at 19° C. and 75% relative humidity under a light regime of 12 hours light/12 hours darkness in a climate cabinet and the activity of a compound was assessed as percent disease control compared to untreated when an appropriate level of disease damage appears in untreated check leaf segments (6 to 8 days after application).
The following compounds at 200 ppm in the applied formulation give at least 80% disease control in this test when compared to untreated control leaf disks under the same conditions, which show extensive disease development.

The test system is the same in data set [3]. The data set can be described thus: Puccinia recondita f. sp. tritici / wheat / leaf disc preventative (brown rust). The format is in vivo. The settings on record: foliar, 200 ppm in the applied formulation, wheat leaf segments cv. Kanzler, inoculated 1 day after application, assessed 7 to 9 days after application, read-out: disease control compared to untreated control leaf disks. As for the experimental part: as §1, with “calculated. Wheat leaf segments cv. Kanzler were placed on agar in multiwell plates (24-well format) and sprayed with the formulated test compound diluted in water. The leaf disks were inoculated with a spore suspension of the fungus 1 day after application. The inoculated leaf segments were incubated at 19° C. and 75% relative humidity (rh) under a light regime of 12 hours light/12 hours darkness in a climate cabinet and the activity of a compound was assessed as percent disease control compared to untreated when an appropriate level of disease damage appears in untreated check leaf segments (7 to 9 days after application). The following compounds at 200 ppm in the applied formulation give at least 80% disease control in this test when compared to untreated control leaf disks under the same conditions, which show extensive disease development.” for “calculated.”

As a reminder, the melting point is the temperature of the solid-liquid transition. The inhibition is the relative decrease from the control value, in per cent.

For the molecule `FC(F)(F)c1nc(-c2ccc(Sc3ccccc3)cc2)no1` [Compound 1.1, 3-(4-phenylsulfanylphenyl)-5-(trifluoromethyl)-1,2,4-oxadiazole], the melting point was in the range of 59 to 62 °C. Also, the pest or weed control at 200 ppm with Phakopsora pachyrhizi was ≥ 80%. For the same molecule, the inhibition at 20 ppm in data set [1] is ≥ 80%. Also, in data set [2], the pest or weed control at 200 ppm was ≥ 80%. In addition, the pest or weed control at 200 ppm in data set [3] is ≥ 80%.

For the molecule `COc1ccc(Sc2ccc(-c3noc(C(F)(F)F)n3)cc2)cc1` [Compound 1.2, 3-[4-(4-methoxyphenyl)sulfanylphenyl]-5-(trifluoromethyl)-1,2,4-oxadiazole], the melting point was 55 to 60 °C. In the data set with Phakopsora pachyrhizi, the pest or weed control at 200 ppm is ≥ 80%. Moreover, the inhibition at 20 ppm in data set [1] was ≥ 80%. Also, the pest or weed control at 200 ppm in data set [2] is ≥ 80%. For the same molecule, the pest or weed control at 200 ppm in data set [3] is ≥ 80%.

Take `FC(F)(F)c1nc(-c2ccc(SCCc3ccccc3)cc2)no1` [Compound 1.5, 3-[4-(2-phenylethylsulfanyl)phenyl]-5-(trifluoromethyl)-1,2,4-oxadiazole]: the pest or weed control at 200 ppm (in the data set with Phakopsora pachyrhizi; in data set [2]; in data set [3]) was ≥ 80% throughout. Also, the inhibition at 20 ppm in data set [1] is ≥ 80%.

Turning to `FC(F)(F)c1nc(-c2ccc(Sc3ccccc3)nc2)no1` [Compound 1.7, 3-(6-phenylsulfanyl-3-pyridyl)-5-(trifluoromethyl)-1,2,4-oxadiazole], the melting point fell in the range of 124 to 129 °C. For the same molecule, the pest or weed control at 200 ppm with Phakopsora pachyrhizi is ≥ 80%. Moreover, in data set [1], the inhibition at 20 ppm is ≥ 80%. Moreover, the pest or weed control at 200 ppm in data set [2] was ≥ 80%.

As for `Fc1cccc(F)c1Sc1ccc(-c2noc(C(F)(F)F)n2)cc1` [Compound 1.12, 3-[4-(2,6-difluorophenyl)sulfanylphenyl]-5-(trifluoromethyl)-1,2,4-oxadiazole], the melting point was 75 to 85 °C. Moreover, the pest or weed control at 200 ppm in the data set on Phakopsora pachyrhizi is ≥ 80%. The inhibition at 20 ppm in data set [1] was ≥ 80%. The pest or weed control at 200 ppm in data set [2] was ≥ 80%.

The molecule `Fc1ccccc1Sc1ccc(-c2noc(C(F)(F)F)n2)cc1` [Compound 1.14, 3-[4-(2-fluorophenyl)sulfanylphenyl]-5-(trifluoromethyl)-1,2,4-oxadiazole] registered a melting point of 35 to 38 °C. Also, the pest or weed control at 200 ppm in the data set on Phakopsora pachyrhizi is ≥ 80%. Also, in data set [2], the pest or weed control at 200 ppm was ≥ 80%. In addition, the pest or weed control at 200 ppm in data set [3] was ≥ 80%.

Regarding `FC(F)(F)c1nc(-c2ccc(CSc3ccccc3)nc2)no1` [Compound 1.23, 3-[6-(phenylsulfanylmethyl)-3-pyridyl]-5-(trifluoromethyl)-1,2,4-oxadiazole], the melting point lay within 71 to 78 °C. Further, in data set [1], the inhibition at 20 ppm is ≥ 80%. Also, in data set [2], the pest or weed control at 200 ppm was ≥ 80%. In data set [3], the pest or weed control at 200 ppm was ≥ 80%.

`Fc1c(CSc2ccccc2)ccc(-c2noc(C(F)(F)F)n2)c1F` [Compound 1.26, 3-[2,3-difluoro-4-(phenylsulfanylmethyl)phenyl]-5-(trifluoromethyl)-1,2,4-oxadiazole] registered a melting point of 52 to 58 °C. In the data set with Phakopsora pachyrhizi, the pest or weed control at 200 ppm is ≥ 80%. For the same molecule, the inhibition at 20 ppm in data set [1] was ≥ 80%. Also, the pest or weed control at 200 ppm in data set [2] is ≥ 80%. Moreover, the pest or weed control at 200 ppm in data set [3] is ≥ 80%.

The molecule `[O-][S+](c1ccccc1)c1ccc(-c2noc(C(F)(F)F)n2)cc1` (centres unmarked) [Compound 2.1, 3-[4-(benzenesulfinyl)phenyl]-5-(trifluoromethyl)-1,2,4-oxadiazole] had a melting point of 97 to 106 °C. Besides, the pest or weed control at 200 ppm in the data set with Phakopsora pachyrhizi was ≥ 80%. Further, the inhibition at 20 ppm in data set [1] is ≥ 80%. Further, the pest or weed control at 200 ppm in data set [2] was ≥ 80%. The pest or weed control at 200 ppm in data set [3] is ≥ 80%.

With `COc1ccc([S+]([O-])c2ccc(-c3noc(C(F)(F)F)n3)cc2)cc1` (centres unmarked) [Compound 2.2, 3-[4-(4-methoxyphenyl)sulfinylphenyl]-5-(trifluoromethyl)-1,2,4-oxadiazole], the melting point lay in the range of 93 to 98 °C. Moreover, the pest or weed control at 200 ppm with Phakopsora pachyrhizi was ≥ 80%. For the same molecule, the inhibition at 20 ppm in data set [1] was ≥ 80%. Besides, the pest or weed control at 200 ppm in data set [2] was ≥ 80%. The pest or weed control at 200 ppm in data set [3] is ≥ 80%.

With `[O-][S+](c1ccc(F)cc1)c1ccc(-c2noc(C(F)(F)F)n2)cc1` (centres unmarked) [Compound 2.13, 3-[4-(4-fluorophenyl)sulfinylphenyl]-5-(trifluoromethyl)-1,2,4-oxadiazole], the melting point lay within 94 to 99 °C. Besides, the pest or weed control at 200 ppm with Phakopsora pachyrhizi is ≥ 80%. Besides, the pest or weed control at 200 ppm in data set [2] is ≥ 80%. Also, the pest or weed control at 200 ppm in data set [3] was ≥ 80%.

In turn, `COc1ccccc1[S+]([O-])c1ccc(-c2noc(C(F)(F)F)n2)cc1` (centres unmarked) [Compound 2.15, 3-[4-(2-methoxyphenyl)sulfinyl-phenyl]-5-(trifluoromethyl)-1,2,4-oxadiazole] showed a melting point of 105 to 115 °C. In addition, the pest or weed control at 200 ppm in the data set with Phakopsora pachyrhizi was ≥ 80%. Moreover, the pest or weed control at 200 ppm in data set [2] is ≥ 80%. Also, in data set [3], the pest or weed control at 200 ppm is ≥ 80%.

Consider `CC(C)(C)[S+]([O-])c1ccc(-c2noc(C(F)(F)F)n2)cc1` (centres unmarked) [Compound 2.19, 3-(4-tert-butylsulfinylphenyl)-5-(trifluoromethyl)-1,2,4-oxadiazole], for which the pest or weed control at 200 ppm (with Phakopsora pachyrhizi; in data set [2]; in data set [3]) was ≥ 80% in each case. For the same molecule, the inhibition at 20 ppm in data set [1] is ≥ 80%.

The molecule `CCC(C)C[S+]([O-])c1ccc(-c2noc(C(F)(F)F)n2)cc1` (centres unmarked) [Compound 2.22, 3-[4-(2-methylbutylsulfinyl)phenyl]-5-(trifluoromethyl)-1,2,4-oxadiazole] registered a melting point of 38 to 43 °C. Besides, the pest or weed control at 200 ppm in the data set with Phakopsora pachyrhizi was ≥ 80%. The inhibition at 20 ppm in data set [1] is ≥ 80%. In data set [2], the pest or weed control at 200 ppm was ≥ 80%.

Regarding `[O-][S+](c1ccc(-c2noc(C(F)(F)F)n2)cc1)C1CCCC1` (centres unmarked) [Compound 2.23, 3-(4-cyclopentylsulfinylphenyl)-5-(trifluoromethyl)-1,2,4-oxadiazole], the pest or weed control at 200 ppm (in the data set with Phakopsora pachyrhizi; in data set [2]; in data set [3]) was ≥ 80% throughout. Also, in data set [1], the inhibition at 20 ppm was ≥ 80%.

In turn, `Cc1ccccc1[S+]([O-])c1ccc(-c2noc(C(F)(F)F)n2)cc1` (centres unmarked) [Compound 2.24, 3-[4-(o-tolylsulfinyl)phenyl]-5-(trifluoromethyl)-1,2,4-oxadiazole] showed a melting point of 100 to 103 °C. The inhibition at 20 ppm in data set [1] is ≥ 80%. In data set [2], the pest or weed control at 200 ppm was ≥ 80%. Besides, in data set [3], the pest or weed control at 200 ppm was ≥ 80%.

In the case of `[O-][S+](c1ccc(-c2noc(C(F)(F)F)n2)cn1)c1ccccc1F` (centres unmarked) [Compound 2.26, 3-[6-(2-fluorophenyl)sulfinyl-3-pyridyl]-5-(trifluoromethyl)-1,2,4-oxadiazole], the melting point was in the range of 92 to 95 °C. Also, the inhibition at 20 ppm in data set [1] was ≥ 80%. Also, in data set [2], the pest or weed control at 200 ppm is ≥ 80%. Moreover, the pest or weed control at 200 ppm in data set [3] was ≥ 80%.

`[O-][S+](Cc1c(F)cc(-c2noc(C(F)(F)F)n2)cc1F)c1ccccc1` (centres unmarked) [Compound 2.32, 3-[4-(benzenesulfinylmethyl)-3,5-difluoro-phenyl]-5-(trifluoromethyl)-1,2,4-oxadiazole] displayed a melting point of 120 to 125 °C. In addition, the pest or weed control at 200 ppm in the data set with Phakopsora pachyrhizi was ≥ 80%. Besides, the inhibition at 20 ppm in data set [1] is ≥ 80%. The pest or weed control at 200 ppm in data set [2] was ≥ 80%.
